Results published in patent publication US20080096811A1, “[…] VPAC2 RECEPTOR PEPTIDE AGONISTS” (Eli Lilly and Company, published 2008).
pEC50, pIC50: −log10 of the molar value. *1 amine or outer side, *2 acyl side, *3 side chain or, on linkers, in order; H or OH if unused. Where a SMILES comes first, the peptide text is derived from it. Where no end group is shown, it is not given here. Side-chain parts run from the residue outwards. The star is where a group is joined. γGlu = O=C(O)[C@H](CCC(=O)[*:2])N[*:1]; Palmitoyl = CCCCCCCCCCCCCCCC(=O)*; Hexanoyl = CCCCCC(=O)*; Propionyl = CCC(=O)*; Bz = O=C(c1ccccc1)*

Columns and labels:
human VPAC2 [1] = target: T1, human VPAC2 (Homo sapiens, UniProt P41587); assay: DiscoveRx cAMP in vitro potency, human VPAC2; assay type: cell-based
T1 construct: expressed in transfected cells
T1 sequence (P41587 24-438): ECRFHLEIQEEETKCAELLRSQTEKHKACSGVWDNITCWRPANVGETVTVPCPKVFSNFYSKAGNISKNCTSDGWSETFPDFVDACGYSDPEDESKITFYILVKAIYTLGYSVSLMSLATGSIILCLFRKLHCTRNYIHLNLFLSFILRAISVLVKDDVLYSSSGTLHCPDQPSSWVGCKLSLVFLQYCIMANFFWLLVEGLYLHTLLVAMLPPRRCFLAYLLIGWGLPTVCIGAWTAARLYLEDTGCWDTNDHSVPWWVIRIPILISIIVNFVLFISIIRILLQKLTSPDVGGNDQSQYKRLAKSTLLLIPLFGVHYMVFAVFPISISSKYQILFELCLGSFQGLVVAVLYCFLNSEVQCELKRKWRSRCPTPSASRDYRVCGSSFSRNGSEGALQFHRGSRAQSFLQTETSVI
Description: Also, the cells are washed twice. The cells are incubated in assay buffer plus IBMX for 15 minutes at room temperature. […] The stimuli are present for 30 minutes. Then, the assay buffer is gently removed. […] At day 3, the assay described above for the VPAC2 receptor cell line is performed.

human VPAC2 [2] = target: T1, human VPAC2; assay: Alpha screen cAMP in vitro potency, human VPAC2; assay type: cell-based
Description: Alpha screen: Cells are washed in the culture flask once with PBS. Then, the cells are rinsed with enzyme free dissociation buffer. The dissociated cells are removed. The cells are then spun down and washed in stimulation buffer. For each data point, 50,000 cells suspended in stimulation buffer are used. To this buffer, Alpha screen acceptor beads are added along with the stimuli. This mixture is incubated for 60 minutes. Lysis buffer and Alpha screen donor beads are added and are incubated for 60 to 120 minutes. The Alpha screen signal (indicative of intracellular cAMP levels) is read in a suitable instrument (e.g. AlphaQuest from Perlin-Elmer). Steps including Alpha screen donor and acceptor beads are performed in reduced light.

human VPAC2 [3] = target: T1, human VPAC2; assay: Filter binding assay, human VPAC2 membranes, 125I-labeled VIP tracer
Description: (§1) For this assay, the solutions and equipment include:
(§2) Presoak solution: 0.5% Polyethyleneamine in Aqua dest.
(§3) Buffer for flushing filter plates: 25 mM […] pH 7.4
(§4) Blocking buffer: 25 mM HEPES pH 7.4; 0.2% protease free BSA
(§5) Assay buffer: 25 mM HEPES pH 7.4; 0.5% protease free BSA
(§6) Dilution and assay plate: PS-Microplate, U form
(§7) Filtration Plate Multiscreen FB Opaque Plate; […] Type B Glasfiber filter
(§8) In order to prepare the filter plates, aspirate the presoak solution by vacuum filtration. Flush the plates twice with 200 μL flush buffer. Add 200 μL blocking buffer to the filter plate. The filter plate is then incubated […] for 1 hour at room temperature.
(§9) Fill the assay plate with 25 μL assay buffer, 25 μL membranes (2.5 μg) suspended in assay buffer, 25 μL compound (agonist) in assay buffer, and 25 μL tracer (about 40000 cpm) in assay buffer. Incubate the filled plate for 1 hour with shaking.
(§10) Conduct the transfer from assay plate to filter plate. Aspirate the blocking buffer by vacuum filtration and wash two times with flush buffer. Transfer 90 μL from the assay plate to the filter plate. Aspirate the 90 μL transferred from assay plate and wash three times with 200 μL flush buffer. Remove the plastic support. Dry for 1 hour at 60° C. Add 30 μL Microscint. Perform the count.

human VPAC1 = target: T2, human VPAC1 (Homo sapiens, UniProt P32241); assay: Filter binding assay, human VPAC1 membranes, 125I-labeled VIP tracer; parameters: expressed in transfected cells
T2 sequence (P32241 31-457): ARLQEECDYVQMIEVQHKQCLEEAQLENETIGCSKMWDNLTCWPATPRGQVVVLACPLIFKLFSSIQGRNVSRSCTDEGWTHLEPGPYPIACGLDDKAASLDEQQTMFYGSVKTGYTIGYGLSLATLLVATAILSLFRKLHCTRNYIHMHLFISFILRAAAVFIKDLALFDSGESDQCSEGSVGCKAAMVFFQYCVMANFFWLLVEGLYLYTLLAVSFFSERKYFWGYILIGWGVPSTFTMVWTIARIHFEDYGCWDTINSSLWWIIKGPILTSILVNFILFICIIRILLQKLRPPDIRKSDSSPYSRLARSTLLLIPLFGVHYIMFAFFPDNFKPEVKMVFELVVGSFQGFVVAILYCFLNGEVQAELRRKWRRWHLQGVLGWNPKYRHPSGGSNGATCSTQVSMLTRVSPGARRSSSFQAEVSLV
Description: as §1, §2, §3, §4, §5, §6, §7, §8, §9, §10

human PAC1 = human PAC1 (Homo sapiens, UniProt P41586); assay: biochemical
Sequence of human PAC1 (P41586 21-468): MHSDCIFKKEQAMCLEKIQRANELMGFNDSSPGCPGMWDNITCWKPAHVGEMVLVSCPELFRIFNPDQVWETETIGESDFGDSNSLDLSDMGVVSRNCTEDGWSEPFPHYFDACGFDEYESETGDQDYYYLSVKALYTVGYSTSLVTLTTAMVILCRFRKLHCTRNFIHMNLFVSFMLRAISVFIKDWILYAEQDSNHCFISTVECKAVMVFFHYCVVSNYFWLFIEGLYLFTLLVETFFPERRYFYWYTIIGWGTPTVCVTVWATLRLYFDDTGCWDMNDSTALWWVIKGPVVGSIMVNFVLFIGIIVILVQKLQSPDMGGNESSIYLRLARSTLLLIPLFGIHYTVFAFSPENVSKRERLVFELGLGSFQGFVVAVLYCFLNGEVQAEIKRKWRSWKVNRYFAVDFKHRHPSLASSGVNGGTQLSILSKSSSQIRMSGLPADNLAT
Description: as §1, §2, §3, §4, §5, §6, §7, §8, §9, §10

## CCCCCCCCCCCCCCCC(=O)N[C@@H](CCC(=O)NCCCC[C@H](NC(=O)[C@@H]1CCCN1C(=O)[C@@H]1CCCN1C(=O)[C@@H]1CCCN1C(=O)[C@H](CO)NC(=O)[C@@H](NC(=O)[C@H](CCCNC(=N)N)NC(=O)[C@H](CO)NC(=O)[C@H](CC(N)=O)NC(=O)[C@H](CCCCN)NC(=O)[C@@H](NC(=O)[C@H](CO)NC(=O)[C@H](CCC(N)=O)NC(=O)[C@H](CC(C)C)NC(=O)[C@H](Cc1ccc(O)cc1)NC(=O)[C@H](CCCCN)NC(=O)[C@H](CCCCN)NC(=O)[C@H](C)NC(=O)[C@H](C)NC(=O)[C@@H](NC(=O)[C@H](CCC(N)=O)NC(=O)[C@H](CCCCN)NC(=O)[C@H](CCCNC(=N)N)NC(=O)[C@H](CC(C)C)NC(=O)[C@H](CCCNC(=N)N)NC(=O)[C@@H](NC(=O)[C@H](Cc1ccc(O)cc1)NC(=O)[C@H](CC(N)=O)NC(=O)[C@H](CC(=O)O)NC(=O)[C@@H](NC(=O)[C@H](Cc1ccccc1)NC(=O)[C@@H](NC(=O)[C@H](C)NC(=O)[C@H](CC(=O)O)NC(=O)[C@H](CO)NC(=O)[C@@H](N)Cc1c[nH]cn1)C(C)C)[C@@H](C)O)[C@@H](C)O)C(C)C)[C@@H](C)CC)[C@@H](C)O)C(N)=O)C(=O)O [Agonist P80] (H-HSDAVFTDNYTRLRKQVAAKKYLQSIKNSRTSPPPK([γGlu-Palmitoyl])-NH2)
Human VPAC2 [1]
  pEC50: 8.55
Human VPAC2 [2]
  pEC50: 8.74
Human VPAC2 [3]
  pIC50: 7.50
Human VPAC1
  pIC50: 6.55

## CCCCCC(=O)N[C@@H](Cc1c[nH]cn1)C(=O)N[C@@H](CO)C(=O)N[C@@H](CC(=O)O)C(=O)N[C@@H](C)C(=O)N[C@H](C(=O)N[C@@H](Cc1ccccc1)C(=O)N[C@H](C(=O)N[C@@H](CC(=O)O)C(=O)N[C@@H](CC(N)=O)C(=O)N[C@@H](Cc1ccc(O)cc1)C(=O)N[C@H](C(=O)N[C@@H](CCCNC(=N)N)C(=O)N[C@@H](CC(C)C)C(=O)N[C@@H](CC(C)C)C(=O)N[C@@H](CC(C)C)C(=O)N[C@@H](CCCCN)C(=O)N[C@H](C(=O)N[C@@H](C)C(=O)N[C@@H](C)C(=O)N[C@@H](CCCCN)C(=O)N[C@@H](CCCCN)C(=O)N[C@@H](Cc1ccc(O)cc1)C(=O)N[C@@H](CC(C)C)C(=O)N[C@@H](CCC(N)=O)C(=O)N[C@@H](CO)C(=O)N[C@H](C(=O)N[C@@H](CCCCN)C(=O)N[C@@H](CC(N)=O)C(=O)N[C@@H](CO)C(=O)N[C@@H](CCCNC(=N)N)C(=O)N[C@H](C(=O)N[C@@H](CO)C(=O)N1CCC[C@H]1C(=O)N1CCC[C@H]1C(=O)N1CCC[C@H]1C(N)=O)[C@@H](C)O)[C@@H](C)CC)C(C)C)[C@@H](C)O)[C@@H](C)O)C(C)C [Agonist P156] (Hexanoyl-HSDAVFTDNYTRLLLKVAAKKYLQSIKNSRTSPPP-NH2)
Human VPAC2 [2]
  pEC50: 9.54
Human VPAC2 [3]
  pIC50: 9.38
Human PAC1
  pIC50: 5.08
Human VPAC1
  pIC50: 7.03

## CCCCCC(=O)N[C@@H](Cc1c[nH]cn1)C(=O)N[C@@H](CO)C(=O)N[C@@H](CC(=O)O)C(=O)N[C@@H](C)C(=O)N[C@H](C(=O)N[C@@H](Cc1ccccc1)C(=O)N[C@H](C(=O)N[C@@H](CC(=O)O)C(=O)N[C@@H](CCC(N)=O)C(=O)N[C@@H](Cc1ccc(O)cc1)C(=O)N[C@H](C(=O)N[C@@H](CCCNC(=N)N)C(=O)N[C@@H](CC(C)C)C(=O)N[C@@H](CCCNC(=N)N)C(=O)N[C@@H](CCCCN)C(=O)N[C@@H](CCC(N)=O)C(=O)N[C@H](C(=O)N[C@@H](C)C(=O)N[C@@H](C)C(=O)N[C@@H](CCCCN)C(=O)N[C@@H](CCCCN)C(=O)N[C@@H](Cc1ccc(O)cc1)C(=O)N[C@@H](CC(C)C)C(=O)N[C@@H](CCC(N)=O)C(=O)N[C@@H](CO)C(=O)N[C@H](C(=O)N[C@@H](CCCCN)C(=O)N[C@@H](CCC(N)=O)C(=O)N[C@@H](CO)C(=O)N[C@@H](CCCNC(=N)N)C(=O)N[C@H](C(=O)N[C@@H](CO)C(=O)N1CCC[C@H]1C(=O)N1CCC[C@H]1C(=O)N1CCC[C@H]1C(N)=O)[C@@H](C)O)[C@@H](C)CC)C(C)C)[C@@H](C)O)[C@@H](C)O)C(C)C [Agonist P157] (Hexanoyl-HSDAVFTDQYTRLRKQVAAKKYLQSIKQSRTSPPP-NH2)
Human VPAC2 [2]
  pEC50: 10.22
Human VPAC2 [3]
  pIC50: 9.85
Human PAC1
  pIC50: 6.65
Human VPAC1
  pIC50: 7.51

## HSDAVFTDNYTRLRKQAAAKKYLQSIKNSRTSPPP-NH2 [Agonist P96]
Human VPAC2 [2]
  pEC50: 9.05
Human VPAC2 [3]
  pIC50: 9.24
Human PAC1
  pIC50: 6.82
Human VPAC1
  pIC50: 7.05

## CC[C@H](C)[C@H](NC(=O)[C@H](CO)NC(=O)[C@H](CCC(N)=O)NC(=O)[C@H](CC(C)C)NC(=O)[C@H](Cc1ccc(O)cc1)NC(=O)[C@H](CCCCN)NC(=O)[C@H](CCCCN)NC(=O)[C@H](C)NC(=O)[C@H](C)NC(=O)[C@@H](NC(=O)[C@H](CCC(N)=O)NC(=O)[C@H](CCCCN)NC(=O)[C@H](CCCNC(=N)N)NC(=O)[C@H](CC(C)C)NC(=O)[C@H](CCCNC(=N)N)NC(=O)[C@@H](NC(=O)[C@H](Cc1ccc(O)cc1)NC(=O)[C@H](CC(N)=O)NC(=O)[C@H](CC(=O)O)NC(=O)[C@@H](NC(=O)[C@H](Cc1ccccc1)NC(=O)[C@@H](NC(=O)[C@H](C)NC(=O)[C@H](CC(=O)O)NC(=O)[C@H](CO)NC(=O)[C@H](Cc1c[nH]cn1)NC(=O)c1ccccc1)C(C)C)[C@@H](C)O)[C@@H](C)O)C(C)C)C(=O)N[C@@H](CCCCN)C(=O)N[C@@H](CC(N)=O)C(=O)N[C@@H](CO)C(=O)N[C@@H](CCCNC(=N)N)C(=O)N[C@H](C(=O)N[C@@H](CO)C(=O)N1CCC[C@H]1C(=O)N1CCC[C@H]1C(=O)N1CCC[C@H]1C(N)=O)[C@@H](C)O [Agonist P91] (Bz-HSDAVFTDNYTRLRKQVAAKKYLQSIKNSRTSPPP-NH2)
Human VPAC2 [1]
  pEC50: 9.12
Human VPAC2 [2]
  pEC50: 8.72
Human VPAC2 [3]
  pIC50: 9.68
Human VPAC1
  pIC50: 7.24

## CCCCCCCCCCCCCCCC(=O)N[C@@H](CCC(=O)NCCCC[C@H](NC(=O)[C@@H]1CCCN1C(=O)[C@@H]1CCCN1C(=O)[C@@H]1CCCN1C(=O)[C@H](CO)NC(=O)[C@@H](NC(=O)[C@H](CCCNC(=N)N)NC(=O)[C@H](CO)NC(=O)[C@H](CC(N)=O)NC(=O)[C@H](CCCCN)NC(=O)[C@@H](NC(=O)[C@H](CO)NC(=O)[C@H](CCC(N)=O)NC(=O)[C@H](CC(C)C)NC(=O)[C@H](Cc1ccc(O)cc1)NC(=O)[C@H](CCCCN)NC(=O)[C@H](CCCCN)NC(=O)[C@H](C)NC(=O)[C@H](C)NC(=O)[C@@H](NC(=O)[C@H](CCC(N)=O)NC(=O)[C@H](CCCCN)NC(=O)[C@H](CCCNC(=N)N)NC(=O)[C@H](CC(C)C)NC(=O)[C@H](CCCNC(=N)N)NC(=O)[C@@H](NC(=O)[C@H](Cc1ccc(O)cc1)NC(=O)[C@H](CC(N)=O)NC(=O)[C@H](CC(=O)O)NC(=O)[C@@H](NC(=O)[C@H](Cc1ccccc1)NC(=O)[C@@H](NC(=O)[C@H](C)NC(=O)[C@H](CC(=O)O)NC(=O)[C@H](CO)NC(=O)[C@H](Cc1c[nH]cn1)NC(=O)CC)C(C)C)[C@@H](C)O)[C@@H](C)O)C(C)C)[C@@H](C)CC)[C@@H](C)O)C(N)=O)C(=O)O [Agonist P95] (Propionyl-HSDAVFTDNYTRLRKQVAAKKYLQSIKNSRTSPPPK([γGlu-Palmitoyl])-NH2)
Human VPAC2 [1]
  pEC50: 9.35
Human VPAC2 [2]
  pEC50: 9.62
Human VPAC2 [3]
  pIC50: 7.67
Human VPAC1
  pIC50: 6.69

## HSDAVFTDNYTRLRKAAAAKKYLQSIKNSRTSPPP-NH2 [Agonist P97]
Human VPAC2 [2]
  pEC50: 9.19
Human VPAC2 [3]
  pIC50: 9.09
Human PAC1
  pIC50: 7.06
Human VPAC1
  pIC50: 7.01
